Laboratory results as given in ChEMBL document CHEMBL5550168, “Structure-based design of multitargeting ChEs-MAO B inhibitors based on phenyl ring bioisosteres: AChE/BChE selectivity switch and drug-like characterization” (Eur J Med Chem, 2024).

Legend:
[1] = Chromatographic hydrophobicity index of compound at pH 7.4 by reversed-phase HPLC analysis; assay type: ADME
[2] = Chromatographic hydrophobicity index of compound at pH 10.5 by reversed-phase HPLC analysis; assay type: ADME
[3] = Chromatographic hydrophobicity index of compound at pH 2.0 by reversed-phase HPLC analysis; assay type: ADME
[4] = Metabolic stability in mouse liver microsomes assessed as half life at 0.5 uM measured upto 30 mins in presence of NADPH by LC-MS/MS analysis; assay type: ADME, Microsome
[5] = Metabolic stability in mouse liver microsomes assessed as intrinsic clearance at 0.5 uM measured upto 30 mins in presence of NADPH by LC-MS/MS analysis; assay type: ADME, Microsome; conditions: read-out: CLH
[6] = in vitro; conditions: mouse
[7] = Permeability of the compound assessed as membrane retention; assay type: ADME

Row | CHI [1] | CHI [2] | CHI [3] | half-life at 0.5 µM [4] [min] | microsomal CLint at 0.5 µM [5] [µL/min/mg] | Papp at 2 h, 20 µM [6] [×10⁻⁶ cm/s] | R% [7] | Structure (SMILES)
1 | 76.7 | 76.1 | 42.7 |  |  |  |  | CN(Cc1ccc(COc2ccc3c(CO)cc(=O)oc3c2)cc1)Cc1nccs1
2 | 70.6 | 70.9 | 32.9 |  |  |  |  | CN(Cc1ccc(COc2ccc3c(CO)cc(=O)oc3c2)cc1)Cc1cccnc1
3 | 96.5 | 98 | 50.4 |  |  |  |  | CN(Cc1ccc(COc2ccc3c(CO)cc(=O)oc3c2)cc1)Cc1cccs1
4 | 62.6 | 61.4 | 35.9 |  |  |  |  | CN(Cc1ccc(COc2ccc3c(CO)cc(=O)oc3c2)cc1)Cc1cncnc1
5 | 65.3 | 69.3 | 29.9 | 5.97 | 233 |  |  | CN(CCc1cccnc1)Cc1ccc(COc2ccc3c(CO)cc(=O)oc3c2)cc1
6 | 83.5 | 85.1 | 47.2 |  |  |  |  | CN(Cc1ccc(COc2ccc3c(CO)cc(=O)oc3c2)cc1)Cc1ccco1
7 | 68.3 | 69.9 | 42.2 |  |  |  |  | CN(Cc1ccc(COc2ccc3c(CO)cc(=O)oc3c2)cc1)Cc1cscn1
8 | 92.9 | 97.8 | 53.7 |  |  |  |  | CN(CCc1cccs1)Cc1ccc(COc2ccc3c(CO)cc(=O)oc3c2)cc1
9 | 98 | 102.1 | 53 |  |  |  |  | CN(Cc1ccccc1)Cc1ccc(COc2ccc3c(CO)cc(=O)oc3c2)cc1
10 |  | 72 | 32.3 |  |  |  |  | CN(Cc1ccncc1)Cc1ccc(COc2ccc3c(CO)cc(=O)oc3c2)cc1
11 | 90.3 | 95 | 50.7 | 22.7 | 61.2 | 8 |  | CN(Cc1ccc(COc2ccc3c(CO)cc(=O)oc3c2)cc1)Cc1ccsc1
12 | 85.5 | 95.2 | 54.3 | 13.5 | 103 | 5.9 |  | CN(CCc1ccsc1)Cc1ccc(COc2ccc3c(CO)cc(=O)oc3c2)cc1
13 | 51.6 | 50.7 | 34.6 |  |  |  | ~ 50% | CN(Cc1ccc(COc2ccc3c(CO)cc(=O)oc3c2)cc1)Cc1ncc[nH]1
